Assays:
[1] = system: Tyrosine-protein kinase ABL1 (Homo sapiens), P00519 [T315I]; settings: Compound concentration 1000.0 nM
[2] = target: Tyrosine-protein kinase ABL1 (Homo sapiens) (UniProt P00519); settings: Compound concentration 1000.0 nM
[3] = target: Activin receptor type-1-like (Homo sapiens) (UniProt P37023); settings: Compound concentration 1000.0 nM
[4] = target: RAC-gamma serine/threonine-protein kinase (Homo sapiens) (UniProt Q9Y243); settings: Compound concentration 1000.0 nM
[5] = target: Aurora kinase B (Homo sapiens) (UniProt Q96GD4); settings: Compound concentration 1000.0 nM
[6] = target: Serine/threonine-protein kinase B-raf (Homo sapiens) (UniProt P15056); settings: Compound concentration 1000.0 nM
[7] = target: Tyrosine-protein kinase BTK (Homo sapiens) (UniProt Q06187); settings: Compound concentration 1000.0 nM
[8] = target: Cyclin-dependent kinase-like 3 (Homo sapiens) (UniProt Q8IVW4); settings: Compound concentration 1000.0 nM
[9] = system: Epidermal growth factor receptor (Homo sapiens), P00533 [UNDEFINED MUTATION]; settings: Compound concentration 1000.0 nM
[10] = target: Ephrin type-B receptor 4 (Homo sapiens) (UniProt P54760); settings: Compound concentration 1000.0 nM
[11] = target: Tyrosine-protein kinase Fer (Homo sapiens) (UniProt P16591); settings: Compound concentration 1000.0 nM
[12] = system: Receptor-type tyrosine-protein kinase FLT3 (Homo sapiens), P36888 [UNDEFINED MUTATION]; settings: Compound concentration 1000.0 nM
[13] = target: Tyrosine-protein kinase FRK (Homo sapiens) (UniProt P42685); settings: Compound concentration 1000.0 nM
[14] = target: Tyrosine-protein kinase Fyn (Homo sapiens) (UniProt P06241); settings: Compound concentration 1000.0 nM
[15] = target: Rhodopsin kinase GRK1 (Homo sapiens) (UniProt Q15835); settings: Compound concentration 1000.0 nM
[16] = target: Homeodomain-interacting protein kinase 3 (Homo sapiens) (UniProt Q9H422); settings: Compound concentration 1000.0 nM
[17] = target: Mitogen-activated protein kinase kinase kinase kinase 1 (Homo sapiens) (UniProt Q92918); settings: Compound concentration 1000.0 nM
[18] = target: Serine/threonine-protein kinase ICK (Homo sapiens) (UniProt Q9UPZ9); settings: Compound concentration 1000.0 nM
[19] = target: Mast/stem cell growth factor receptor Kit (Homo sapiens) (UniProt P10721); settings: Compound concentration 1000.0 nM
[20] = target: Tyrosine-protein kinase Lck (Homo sapiens) (UniProt P06239); settings: Compound concentration 1000.0 nM
[21] = target: Mitogen-activated protein kinase kinase kinase kinase 3 (Homo sapiens) (UniProt Q8IVH8); settings: Compound concentration 1000.0 nM
[22] = target: MAP kinase-activated protein kinase 2 (Homo sapiens) (UniProt P49137); settings: Compound concentration 1000.0 nM
[23] = target: MAP kinase-activated protein kinase 5 (Homo sapiens) (UniProt Q8IW41); settings: Compound concentration 1000.0 nM
[24] = target: Serine/threonine-protein kinase Nek2 (Homo sapiens) (UniProt P51955); settings: Compound concentration 1000.0 nM
[25] = target: Serine/threonine-protein kinase PAK 4 (Homo sapiens) (UniProt O96013); settings: Compound concentration 1000.0 nM
[26] = target: Serine/threonine-protein kinase PAK 5 (Homo sapiens) (UniProt Q9P286); settings: Compound concentration 1000.0 nM
[27] = target: Cyclin-dependent kinase 16 (Homo sapiens) (UniProt Q00536); settings: Compound concentration 1000.0 nM
[28] = target: Phosphatidylinositol 4-phosphate 3-kinase C2 domain-containing subunit beta (Homo sapiens) (UniProt O00750); settings: Compound concentration 1000.0 nM
[29] = target: Proto-oncogene tyrosine-protein kinase receptor Ret (Homo sapiens) (UniProt P07949); settings: Compound concentration 1000.0 nM
[30] = system: Proto-oncogene tyrosine-protein kinase receptor Ret (Homo sapiens), P07949 [V804M]; settings: Compound concentration 1000.0 nM
[31] = target: Serine/threonine-protein kinase RIO1 (Homo sapiens) (UniProt Q9BRS2); settings: Compound concentration 1000.0 nM
[32] = target: Proto-oncogene tyrosine-protein kinase ROS (Homo sapiens) (UniProt P08922); settings: Compound concentration 1000.0 nM
[33] = target: Serine/threonine-protein kinase Sgk1 (Homo sapiens) (UniProt O00141); settings: Compound concentration 1000.0 nM
[34] = target: Uncharacterized serine/threonine-protein kinase SBK3 (Homo sapiens) (UniProt P0C264); settings: Compound concentration 1000.0 nM
[35] = target: STE20/SPS1-related proline-alanine-rich protein kinase (Homo sapiens) (UniProt Q9UEW8); settings: Compound concentration 1000.0 nM
[36] = target: Serine/threonine-protein kinase TAO2 (Homo sapiens) (UniProt Q9UL54); settings: Compound concentration 1000.0 nM
[37] = target: TGF-beta receptor type-2 (Homo sapiens) (UniProt P37173); settings: Compound concentration 1000.0 nM
[38] = target: Serine/threonine-protein kinase tousled-like 2 (Homo sapiens) (UniProt Q86UE8); settings: Compound concentration 1000.0 nM
[39] = target: TRAF2 and NCK-interacting protein kinase (Homo sapiens) (UniProt Q9UKE5); settings: Compound concentration 1000.0 nM
[40] = target: Non-receptor tyrosine-protein kinase TNK1 (Homo sapiens) (UniProt Q13470); settings: Compound concentration 1000.0 nM
[41] = target: Serine/threonine-protein kinase ULK3 (Homo sapiens) (UniProt Q6PHR2); settings: Compound concentration 1000.0 nM
[42] = target: Serine/threonine-protein kinase WNK2 (Homo sapiens) (UniProt Q9Y3S1); settings: Compound concentration 1000.0 nM
[43] = target: D(1B) dopamine receptor (Homo sapiens) (UniProt P21918); settings: Compound concentration 10.0 uM
[44] = target: Sodium-dependent dopamine transporter (Homo sapiens) (UniProt Q01959); settings: Compound concentration 10.0 uM
[45] = target: Sigma intracellular receptor 2 (Homo sapiens) (UniProt Q5BJF2); settings: Compound concentration 10.0 uM

MAP kinase-activated protein kinase 2 (Homo sapiens), sequence (P49137 whole entry, looked up): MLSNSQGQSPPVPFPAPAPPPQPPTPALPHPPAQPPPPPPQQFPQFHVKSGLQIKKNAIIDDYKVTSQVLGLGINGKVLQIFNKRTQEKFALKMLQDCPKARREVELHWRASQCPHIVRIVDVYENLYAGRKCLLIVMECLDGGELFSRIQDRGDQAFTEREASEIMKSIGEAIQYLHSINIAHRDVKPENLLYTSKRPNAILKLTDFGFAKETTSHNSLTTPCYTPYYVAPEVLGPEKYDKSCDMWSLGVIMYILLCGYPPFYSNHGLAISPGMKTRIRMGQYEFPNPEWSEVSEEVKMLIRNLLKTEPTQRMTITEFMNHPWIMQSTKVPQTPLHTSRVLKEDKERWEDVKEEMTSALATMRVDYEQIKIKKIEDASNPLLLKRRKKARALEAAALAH
Activin receptor type-1-like (Homo sapiens), sequence (P37023 whole entry): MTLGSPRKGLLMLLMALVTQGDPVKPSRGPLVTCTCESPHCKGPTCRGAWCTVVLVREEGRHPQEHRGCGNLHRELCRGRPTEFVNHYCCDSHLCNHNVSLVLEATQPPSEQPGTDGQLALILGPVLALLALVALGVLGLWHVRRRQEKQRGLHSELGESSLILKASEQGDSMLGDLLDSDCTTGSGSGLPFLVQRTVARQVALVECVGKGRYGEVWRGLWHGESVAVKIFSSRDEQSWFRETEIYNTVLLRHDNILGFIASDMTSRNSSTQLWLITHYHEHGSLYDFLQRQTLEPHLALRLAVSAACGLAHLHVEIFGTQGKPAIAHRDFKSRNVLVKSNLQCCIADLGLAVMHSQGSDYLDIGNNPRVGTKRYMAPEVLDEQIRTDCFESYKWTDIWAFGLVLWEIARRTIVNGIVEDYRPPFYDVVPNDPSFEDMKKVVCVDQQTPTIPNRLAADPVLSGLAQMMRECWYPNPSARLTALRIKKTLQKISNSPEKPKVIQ
Proto-oncogene tyrosine-protein kinase receptor Ret (Homo sapiens), P07949 [V804M], sequence (P07949 whole entry V804M): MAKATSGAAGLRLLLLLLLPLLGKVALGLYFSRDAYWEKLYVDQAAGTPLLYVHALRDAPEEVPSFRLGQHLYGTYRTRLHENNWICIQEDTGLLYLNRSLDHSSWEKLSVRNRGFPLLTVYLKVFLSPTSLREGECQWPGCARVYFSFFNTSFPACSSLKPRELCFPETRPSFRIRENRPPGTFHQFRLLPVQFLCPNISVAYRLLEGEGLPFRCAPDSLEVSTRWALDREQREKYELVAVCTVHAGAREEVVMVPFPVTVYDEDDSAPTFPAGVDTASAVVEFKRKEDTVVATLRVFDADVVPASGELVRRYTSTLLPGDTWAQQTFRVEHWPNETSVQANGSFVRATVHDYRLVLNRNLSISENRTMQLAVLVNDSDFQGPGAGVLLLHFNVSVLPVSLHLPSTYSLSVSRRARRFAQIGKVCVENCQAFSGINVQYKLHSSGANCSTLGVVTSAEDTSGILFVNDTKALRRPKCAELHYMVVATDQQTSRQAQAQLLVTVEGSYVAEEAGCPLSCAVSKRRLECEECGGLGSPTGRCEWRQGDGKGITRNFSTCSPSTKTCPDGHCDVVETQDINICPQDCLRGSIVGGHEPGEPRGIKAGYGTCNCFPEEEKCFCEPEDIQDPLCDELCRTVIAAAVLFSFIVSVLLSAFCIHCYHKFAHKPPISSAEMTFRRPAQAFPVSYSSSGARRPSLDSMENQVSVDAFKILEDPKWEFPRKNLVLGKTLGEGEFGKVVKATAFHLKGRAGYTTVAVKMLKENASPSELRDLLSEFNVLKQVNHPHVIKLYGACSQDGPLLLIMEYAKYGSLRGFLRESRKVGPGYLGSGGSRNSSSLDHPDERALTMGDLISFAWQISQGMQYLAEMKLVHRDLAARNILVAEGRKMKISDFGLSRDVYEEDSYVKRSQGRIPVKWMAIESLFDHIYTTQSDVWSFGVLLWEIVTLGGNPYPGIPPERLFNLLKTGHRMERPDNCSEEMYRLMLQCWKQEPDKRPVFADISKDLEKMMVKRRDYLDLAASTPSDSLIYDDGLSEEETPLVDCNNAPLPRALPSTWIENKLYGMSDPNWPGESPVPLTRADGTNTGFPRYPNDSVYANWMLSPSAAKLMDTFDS
D(1B) dopamine receptor (Homo sapiens), sequence (P21918 whole entry): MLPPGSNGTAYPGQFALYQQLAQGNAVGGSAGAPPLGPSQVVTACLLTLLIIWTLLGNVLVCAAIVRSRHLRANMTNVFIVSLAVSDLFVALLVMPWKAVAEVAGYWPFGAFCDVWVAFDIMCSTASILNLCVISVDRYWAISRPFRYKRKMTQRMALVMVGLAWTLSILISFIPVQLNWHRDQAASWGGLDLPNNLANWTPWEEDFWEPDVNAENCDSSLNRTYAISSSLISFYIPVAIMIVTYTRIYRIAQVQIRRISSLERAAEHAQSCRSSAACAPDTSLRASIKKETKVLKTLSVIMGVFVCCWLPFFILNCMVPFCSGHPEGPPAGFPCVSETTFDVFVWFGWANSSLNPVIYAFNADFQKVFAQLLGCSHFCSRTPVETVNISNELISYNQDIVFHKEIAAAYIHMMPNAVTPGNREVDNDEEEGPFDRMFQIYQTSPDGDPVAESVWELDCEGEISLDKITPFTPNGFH
RAC-gamma serine/threonine-protein kinase (Homo sapiens), sequence (Q9Y243 whole entry): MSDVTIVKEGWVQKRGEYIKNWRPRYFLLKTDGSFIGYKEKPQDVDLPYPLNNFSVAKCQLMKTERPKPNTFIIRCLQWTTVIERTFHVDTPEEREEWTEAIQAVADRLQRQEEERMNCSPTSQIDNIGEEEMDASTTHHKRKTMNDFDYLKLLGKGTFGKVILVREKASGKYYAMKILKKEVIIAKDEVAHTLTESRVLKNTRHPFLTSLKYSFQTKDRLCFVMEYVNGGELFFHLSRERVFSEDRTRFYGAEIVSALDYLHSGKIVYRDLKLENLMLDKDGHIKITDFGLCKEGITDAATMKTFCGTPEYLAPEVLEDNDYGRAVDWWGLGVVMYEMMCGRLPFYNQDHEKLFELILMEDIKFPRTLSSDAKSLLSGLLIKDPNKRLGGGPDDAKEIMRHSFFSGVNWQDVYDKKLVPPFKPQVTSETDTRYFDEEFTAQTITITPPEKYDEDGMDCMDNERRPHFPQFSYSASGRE
Serine/threonine-protein kinase PAK 4 (Homo sapiens), sequence (O96013 whole entry, looked up): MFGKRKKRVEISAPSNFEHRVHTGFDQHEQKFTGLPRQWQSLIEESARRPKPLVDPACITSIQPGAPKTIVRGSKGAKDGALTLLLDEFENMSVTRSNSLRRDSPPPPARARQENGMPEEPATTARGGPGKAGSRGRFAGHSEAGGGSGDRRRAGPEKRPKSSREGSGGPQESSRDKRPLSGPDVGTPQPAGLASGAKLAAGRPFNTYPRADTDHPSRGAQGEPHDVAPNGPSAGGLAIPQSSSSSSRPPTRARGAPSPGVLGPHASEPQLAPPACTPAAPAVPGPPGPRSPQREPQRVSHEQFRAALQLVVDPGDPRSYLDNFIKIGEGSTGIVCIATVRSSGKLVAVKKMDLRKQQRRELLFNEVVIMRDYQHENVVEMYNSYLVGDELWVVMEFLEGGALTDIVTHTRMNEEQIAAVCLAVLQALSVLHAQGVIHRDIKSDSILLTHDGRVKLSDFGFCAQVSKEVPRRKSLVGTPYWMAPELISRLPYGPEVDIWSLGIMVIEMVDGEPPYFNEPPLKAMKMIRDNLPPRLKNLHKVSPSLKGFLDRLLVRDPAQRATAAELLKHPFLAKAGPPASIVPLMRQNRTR
Ephrin type-B receptor 4 (Homo sapiens), sequence (P54760 whole entry): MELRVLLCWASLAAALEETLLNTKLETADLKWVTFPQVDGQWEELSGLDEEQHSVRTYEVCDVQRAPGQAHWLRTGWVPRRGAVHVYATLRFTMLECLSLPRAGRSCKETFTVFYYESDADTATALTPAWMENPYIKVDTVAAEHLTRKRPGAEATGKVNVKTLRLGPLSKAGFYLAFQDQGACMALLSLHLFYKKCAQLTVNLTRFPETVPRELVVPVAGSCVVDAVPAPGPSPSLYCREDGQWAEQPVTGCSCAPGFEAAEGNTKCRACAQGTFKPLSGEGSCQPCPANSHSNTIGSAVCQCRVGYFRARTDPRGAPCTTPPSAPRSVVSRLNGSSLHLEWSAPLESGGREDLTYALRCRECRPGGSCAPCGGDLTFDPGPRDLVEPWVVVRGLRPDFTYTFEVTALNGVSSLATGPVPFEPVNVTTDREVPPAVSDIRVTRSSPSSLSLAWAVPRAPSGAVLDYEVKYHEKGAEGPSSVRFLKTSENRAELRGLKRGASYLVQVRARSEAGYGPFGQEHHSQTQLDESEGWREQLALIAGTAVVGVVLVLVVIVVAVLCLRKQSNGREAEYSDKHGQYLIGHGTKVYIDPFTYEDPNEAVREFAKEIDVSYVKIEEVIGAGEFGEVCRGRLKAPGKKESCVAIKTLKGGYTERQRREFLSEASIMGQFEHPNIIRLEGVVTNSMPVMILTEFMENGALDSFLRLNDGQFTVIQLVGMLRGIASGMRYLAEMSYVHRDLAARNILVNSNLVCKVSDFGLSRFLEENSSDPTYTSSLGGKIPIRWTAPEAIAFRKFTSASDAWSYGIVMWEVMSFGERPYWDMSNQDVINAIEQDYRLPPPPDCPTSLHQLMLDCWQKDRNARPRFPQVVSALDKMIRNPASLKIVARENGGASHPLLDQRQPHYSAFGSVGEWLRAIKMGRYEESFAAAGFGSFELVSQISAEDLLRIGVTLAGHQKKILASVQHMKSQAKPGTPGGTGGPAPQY
Uncharacterized serine/threonine-protein kinase SBK3 (Homo sapiens), sequence (P0C264 whole entry): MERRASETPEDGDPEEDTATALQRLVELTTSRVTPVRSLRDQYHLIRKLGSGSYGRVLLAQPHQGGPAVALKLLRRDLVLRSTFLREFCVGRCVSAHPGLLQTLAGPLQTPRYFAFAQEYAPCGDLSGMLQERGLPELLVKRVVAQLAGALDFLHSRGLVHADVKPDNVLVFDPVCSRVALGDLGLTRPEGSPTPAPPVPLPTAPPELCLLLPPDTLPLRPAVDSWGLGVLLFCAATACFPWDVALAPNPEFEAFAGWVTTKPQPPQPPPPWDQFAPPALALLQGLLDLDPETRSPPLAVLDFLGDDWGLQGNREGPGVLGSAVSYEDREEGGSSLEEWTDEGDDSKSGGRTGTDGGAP
Proto-oncogene tyrosine-protein kinase receptor Ret (Homo sapiens), sequence (P07949 whole entry): as the sequence (P07949 whole entry V804M) above, with M804V counted along it

CS(=O)(=O)NCC[C@H](NC(=O)c1cncc2c1cnn2-c1ccc(F)cc1)c1ccnc(S(C)(=O)=O)c1 [BI 9307]
inactive: residual activity [1] 93% | residual activity [2] 90% | residual activity [3] 96% | residual activity [4] 93% | residual activity [5] 100% | residual activity [6] 79% | residual activity [7] 100% | residual activity [8] 99% | residual activity [9] 100% | residual activity [10] 100% | residual activity [11] 100% | residual activity [12] 92% | residual activity [13] 100% | residual activity [14] 100% | residual activity [15] 100% | residual activity [16] 100% | residual activity [17] 95% | residual activity [18] 100% | residual activity [19] 100% | residual activity [20] 100% | residual activity [21] 90% | residual activity [22] 100% | residual activity [23] 100% | residual activity [24] 97% | residual activity [25] 100% | residual activity [26] 99% | residual activity [27] 100% | residual activity [28] 78% | residual activity [29] 91% | residual activity [30] 96% | residual activity [31] 85% | residual activity [32] 94% | residual activity [33] 100% | residual activity [34] 100% | residual activity [35] 80% | residual activity [36] 85% | residual activity [37] 96% | residual activity [38] 100% | residual activity [39] 100% | residual activity [40] 100% | residual activity [41] 100% | residual activity [42] 100% | inhibition [43] 36% | inhibition [44] 25.3% | inhibition [45] -1.85%

CS(=O)(=O)c1cc(C2(NC(=O)c3cncc4c3cnn4-c3ccc(F)cc3)CC2)ccn1 [BI 639667]
inactive: residual activity [1] 75% | residual activity [2] 86% | residual activity [3] 100% | residual activity [4] 96% | residual activity [5] 88% | residual activity [6] 87% | residual activity [7] 97% | residual activity [8] 96% | residual activity [9] 100% | residual activity [10] 100% | residual activity [11] 100% | residual activity [12] 100% | residual activity [13] 58% | residual activity [14] 55% | residual activity [15] 87% | residual activity [16] 85% | residual activity [17] 89% | residual activity [18] 100% | residual activity [19] 100% | residual activity [20] 100% | residual activity [21] 87% | residual activity [22] 100% | residual activity [23] 87% | residual activity [24] 93% | residual activity [25] 100% | residual activity [26] 100% | residual activity [27] 94% | residual activity [28] 84% | residual activity [29] 100% | residual activity [30] 97% | residual activity [31] 80% | residual activity [32] 100% | residual activity [33] 97% | residual activity [34] 100% | residual activity [35] 58% | residual activity [36] 97% | residual activity [37] 100% | residual activity [38] 100% | residual activity [39] 95% | residual activity [40] 80% | residual activity [41] 100% | residual activity [42] 75% | inhibition [43] -0.37% | inhibition [44] 22.5% | inhibition [45] 9.02%

Source: ChEMBL document CHEMBL4507278 (2021)
